Source: patent US20070066483A1, “Plant Nourishing” (priority 2004, published 2007)

Test system: carnations
Assay: Preservation of cut carnations in vases of distilled water with one additive each
Assay type: in vivo
Conditions: one cut carnation per vase, one teaspoon of additive in 1 cup distilled water; for order in which the flowers collapsed: collapsed = flower fell to a side of the stem
Experimental: The materials in the experiment used included seven vases; one cutting knife; one teaspoon each of lemon-lime soda, sugar, aspirin, house bleach, vitamins, a sports drink, including citric acid, potassium, sodium, sugar and water, eight cups of warm distilled water, and seven fresh carnations Each of the seven vases were filled with 1 cup of distilled water. One teaspoon of each additive was added to its own separate vase of distilled water. One vase only contained distilled water because it was used as the control group. Each carnation was cut on the end at a slant. […] Referring to FIG. 3, the conditions of each flower were recorded after every 24-hour period on a scale from “1” to “10.” Scores between “7” to “10” are “good,” scores between “4” to “6” are “fair,” and scores between “0” to “3” are poor. […] A flower was “collapsed” when it decayed to a point where the flower 14 fell to a side of the stem 18. Aspirin is recommended to preserve flowers by many florists because it lowers the PH level of water, making it more acidic. Acid helps water move more easily up the tubes in a flower's stem 18. However, some florists argue that aspirin can damage flowers, which this experiment supported. Bleach was used in the experiment because bleach kills bacteria, which is harmful to flowers. However, the bleach and water solution only preserved its flower for ten out of nineteen days. […] The carnation with vitamins and water solution may have collapsed because of bacteria growth that developed in the vase. The control group (water only) preserved its carnation for an average length of thirteen days. […] All three solutions contained sugar, a vital substance needed by plants to carry out photosynthesis. The flower with the lemon lime soda lasted for sixteen days, and the flower with sugar lasted for eighteen days. The sports drink and water was the solution that preserved its flower the longest, approximately twenty-nine days.

Row | Molecule | order in which the flowers collapsed | time the flower was preserved (until collapse) (condition recorded every 24 hours)
1 | CC(=O)Oc1ccccc1C(=O)O [aspirin] | first flowers to collapse | 
2 | sugar | last three flowers to remain fresh | eighteen
